Test results: patent US20200292528A1, “CELL CHEMOTAXIS ASSAYS” (The General Hospital Corporation, priority 2013, published 2020)

Key:
neutrophils [1] = test: Microfluidic neutrophil chemotaxis assay, healthy donor whole blood (finger prick, venous) and isolated neutrophils; format: cell-based, human; conditions: for neutrophils recruited from finger prick whole blood (count): average of 16 attractant chambers
Description: Capillary blood (50 μL) was collected by pricking a finger of healthy volunteers. The blood was then pipetted into an eppendorf tube containing a mixed solution of HBSS media, heparin anti-coagulant (1.65 USP/50 μL of blood), and Hoescht stain (10 μL, 32.4 μM). […] Louis, Mo.) or Leukotriene B4 (LTB4) (Caymen Chemicals, Ann Arbor, Mich.) [100 nM] immediately after the PDMS donut-shaped device was bonded to the well plate. The chemoattractant solution also contained fibronectin [25 nM] (Sigma-Aldrich, St. Louis, Mo.) to promote neutrophil surface adhesion. The chemoattractant was pipetted into the whole blood loading chamber (WBLC) and directly around the circumference of the device. […] Afterwards, the central whole-blood loading chamber and the outside region surrounding the donut were washed thoroughly with Phosphate Buffered Saline (PBS) in each well to wash away excess chemoattractant. The wells of the plate were then filled with RPMI 1640 media and allowed to sit for a period of 15 minutes to generate stable chemoattractant gradients. […] Capillary blood (50 μL) was collected by pricking a finger of healthy volunteers. The blood was then pipetted into an eppendorf tube containing a mixed solution of HBSS media, heparin anti-coagulant (1.65 USP/50 μL of blood), and Hoescht stain (10 μL, 32.4 μM). […] For venous blood samples, 10 mL of peripheral blood was drawn from a health volunteer into tubes containing 33 US […] (Vacutainer, Becton Dickinson, Franklin Lakes, N.J.). […] To compare the whole blood results with neutrophil migration from an isolated sample, we also isolated human neutrophils from whole blood using HetaSep followed by the EasySep Human Neutrophil Enrichment Kits (STEMCELL Technologies Inc. Vancouver, Canada) following the manufacturer's protocol. […] Louis, Mo.) at a density of 40,000 cells/μL and kept at 37° C. cell until devices were properly primed. […] Directionality of primed neutrophils was quantified by counting the number of cells that followed the chemotactic gradient and turned at the bifurcation toward the chemoattractant chamber as opposed to the number of cells that exited the device to the peripheral region. Cell velocities were calculated using Image J (NIH) and data analysis with GraphPad Prism. Neutrophil migration toward different attractants (fMLP and LTB4) was also examined. […] The concentrations of the three different chemoattractants were varied from 10 nM to 50 nM to 100 nM. Solutions containing fibronectin [25 nM] and exclusive of fibronection were prepared. Finger prick blood and venous blood were obtained as described above in Example 3.

neutrophils [2] = test: Microfluidic neutrophil chemotaxis assay, blood of a burn patient (24% TBSA) over 3 weeks; format: cell-based, human; conditions: for neutrophil accumulation counts versus healthy volunteer: three weeks post-burn
Description: Blood samples of 1 mL were collected from one burn patient suffering from 24% total body surface area (TBSA) burn. Procedures for fabricating the device, preparing the chemoattractant gradient, and performing time-lapse imaging were conducted as explained above with respect to examples 2-4.
Neutrophil chemotaxis was monitored over a 3 week treatment period. FIG. 10A is a plot of neutrophil migration counts in the attractant chamber with no chemoattractant gradient, with fMLP chemoattractant gradient [100 nM], and with LTB4 chemoattractant gradient [100 nM]. FIG. 10B is a plot of velocity [μm/min] of neutrophils migrating to LTB4 compared with fMLP over a three week period. FIG. 10C is a plot of directionality index of neutrophils migrating to LTB4 compared with fMLP. All graphs correspond to average cell counts across 16 attractant chambers.

human neutrophils = test: Inter-species microfluidic neutrophil chemotaxis from one droplet of whole blood: human; format: cell-based; conditions: for percentage of neutrophils that migrated: 2 μL whole blood
Description: (§1) The microfluidic device to study mouse, rat and human neutrophil chemotaxis from one droplet of whole blood was designed with three main components: focal chemoattractant chambers (FCCs) (200×200 μm), a central whole-blood loading chamber, and migration channels containing RBC filtering regions. The filter for each migration channel included 10 short channels (Length ˜75 μm) with a 3.5 μm narrowing region (‘pinch’) connected horizontally through an approximately 200-μm-long channel to create 90° bending sections capable of trapping the RBCs to prevent them from dispersing into the rest of the migration channel. All migration channels were designed to be 12 μm wide and 3 μm high to establish only a single column of RBCs for efficient trapping while allowing active mouse, rat and human neutrophils to easily migrate through. The devices were fabricated as described above in Example 2.
(§2) For humans, 50 μL of capillary blood was collected by pricking a finger of healthy volunteers. For mice, 50 μL of capillary blood was collected by the facial vein method (Institutional animal care and use Protocol #2007N000136) requiring no anesthesia. For rats, 50 μL of venous blood was collected from the tail vein (Institutional animal care and use Protocol #2012N000034) using 1-2% Isoflurane inhalant. The blood was then pipetted into an eppendorf tube containing a mixed solution of HBSS media, heparin anti-coagulant (1.65 USP/50 μL of blood), and Hoechst stain (10 μL, 32.4 μM). The eppendorf tube was then incubated for 10 minutes at 37° C. and 5% CO2 to allow for proper staining of the nuclei.
(§3) All reagents and whole blood were pipetted into the device and there was no flow or requirement of external syringe pump. A gradient of the chemoattractant was established along the migration channels by diffusion between the chemoattractant chambers and the central loading chamber. Prior to cell loading and immediately after bonding to the well plate, donut-shaped devices were filled with the chemoattractant solution containing 25 nM of fibronectin (Sigma-Aldrich, St. Louis, Mo.). The well plate was then placed in a desiccator under vacuum to de-gas for 15 minutes to ensure proper filling of the chambers while the PDMS surface was still hydrophilic. Afterwards, the central whole-blood loading chamber and the outside region surrounding the donut were washed thoroughly in each well to establish the gradient along the migration channels. The wells of the plate were then filled with RPMI 1640 media and allowed to sit for a period of 15 minutes to generate stable chemoattractant gradients. Finally, using a gel-lading tip, 2 μL of whole blood was slowly pipetted into the central whole-blood loading chamber.
(§4) Time-lapse imaging was performed on a Nikon Eclipse Ti microscope with 10-15× magnification and a biochamber heated to 37° C. with 5% CO2 and 80% humidity. […] For each experiment, at least 50 neutrophils were manually tracked. Directionality of primed neutrophils was quantified by counting the number of cells that followed the chemotactic gradient and turned at the bifurcation toward the chemoattractant chamber as opposed to the number of cells that exited the device to the peripheral region. Cell velocities were calculated using ImageJ (NIH). Total percentage of neutrophils to migrate was estimated using a COMSOL simulation model that estimated that 30.6% of area in whole blood loading chamber from which neutrophils could migrate in experimental time to be above critical gradient concentration. For an average human experiment, this would estimate ˜277 neutrophils per well that are exposed to chemoattractant gradient.

Wistar rat neutrophils = test: Inter-species microfluidic neutrophil chemotaxis from one droplet of whole blood: Wistar rat; format: cell-based; conditions: for percentage of neutrophils that migrated: Wistar rat whole blood
Description: as §1, §2
All reagents and whole blood were pipetted into the device and there was no flow or requirement of external syringe pump. A gradient of the chemoattractant was established along the migration channels by diffusion between the chemoattractant chambers and the central loading chamber. Prior to cell loading and immediately after bonding to the well plate, donut-shaped devices were filled with the chemoattractant solution containing 25 nM of fibronectin (Sigma-Aldrich, St. Louis, Mo.). The well plate was then placed in a desiccator under vacuum to de-gas for 15 minutes to ensure proper filling of the chambers while the PDMS surface was still hydrophilic. […]
Time-lapse imaging was performed on a Nikon Eclipse Ti microscope with 10-15× magnification and a biochamber heated to 37° C. with 5% CO2 and 80% humidity. […] Directionality of primed neutrophils was quantified by counting the number of cells that followed the chemotactic gradient and turned at the bifurcation toward the chemoattractant chamber as opposed to the number of cells that exited the device to the peripheral region. Cell velocities were calculated using ImageJ (NIH). […]

mouse neutrophils = test: Inter-species microfluidic neutrophil chemotaxis from one droplet of whole blood: C57BL/6 and Sv129S6 mice; format: cell-based; conditions: for directionality of Sv129S6 mouse neutrophils compared with humans: Sv129S6 mouse versus human
Description: as §1, §2, §3, §4

[3] = 1 week after burn, 100 nM gradient, versus healthy volunteer

## fibronectin
Neutrophils [1]; 25 nM, pin prick and venous blood
  effect of inclusion in the chemoattractant solution on final neutrophil counts migrating towards fMLP: does not appear to change final neutrophil counts

## CCCCC/C=C\C[C@@H](O)/C=C/C=C/C=C\[C@@H](O)CCCC(=O)O [LTB4, Leukotriene B4]
Neutrophils [1]; 100 nM gradient, after 200 min
  neutrophils recruited from finger prick whole blood (count): 39±12 cells/device
Neutrophils [1]; finger prick whole blood
  neutrophil velocity: 20±7 μm/min
Neutrophils [2]
  neutrophil accumulation counts versus healthy volunteer: in the normal range
Neutrophils [2]; two weeks post-burn
  reduction in neutrophil velocity: 40%
Human neutrophils
  percentage of neutrophils that migrated: 54.0±5.6%
Wistar rat neutrophils
  percentage of neutrophils that migrated: 2.8±1.1%
Mouse neutrophils; C57BL/6 mouse whole blood
  percentage of neutrophils that migrated: 52.7±24%
Mouse neutrophils
  directionality of Sv129S6 mouse neutrophils compared with humans: comparable
Mouse neutrophils; Sv129S6 mouse whole blood
  percentage of neutrophils that migrated: 99.5±13%

## CSCC[C@H](NC=O)C(=O)N[C@@H](CC(C)C)C(=O)N[C@@H](Cc1ccccc1)C(=O)O [fMLP, N-formyl-methionyl-leucyl-phenylalanine]
Neutrophils [1]; 100 nM gradient, after 200 min
  neutrophils recruited from finger prick whole blood (count): 86±7 cells/device
Neutrophils [1]; 100 nM gradient, after 3.5 hours, venous, finger prick and isolated neutrophil sources
  neutrophil accumulation numbers: around 135±20 cells/device
Neutrophils [1]; 100 nM gradient, finger prick whole blood of one healthy donor, after 200 min
  average neutrophil migration counts in 6 separate devices: 83±12 cells
Neutrophils [1]; 100 nM gradient, finger prick whole blood, after 200 min, 5 out of 7 donors clustered around it
  neutrophil migration counts per chamber, average of healthy donors: 92±35 cells
Neutrophils [1]; 100 nM gradient, venous and finger prick whole blood and isolated neutrophils
  time until neutrophils began migrating towards the gradient: ≤ 20 min
Neutrophils [1]; 100 nM gradients, finger prick whole blood, 200 min
  neutrophil count recruited relative to LTB4: two-fold higher count
Neutrophils [1]; finger prick whole blood
  neutrophil velocity: 19 ±6 μm/min
Neutrophils [2]; [3]
  reduction in directionality: 50%
  reduction in neutrophil velocity: 75%
Neutrophils [2]
  neutrophil accumulation counts versus healthy volunteer: lower than the average healthy volunteer count
Neutrophils [2]; two weeks post burn, patient had fever
  number of cells accumulating, above the normal healthy volunteer range: 15%
Neutrophils [2]; two weeks post-burn
  reduction in neutrophil velocity: 60%
Human neutrophils
  directional index of neutrophils: 0.85±0.06
  velocity of neutrophils towards the chemoattractant: 23.4±5.4 μm/min
  percentage of neutrophils that migrated: 55.8±19.8%
Wistar rat neutrophils
  percentage of neutrophils that migrated: 10.9±8.5%
Wistar rat neutrophils; rat
  directional index of neutrophils: 0.62±0.12
  velocity of neutrophils towards the chemoattractant: 26.2±5.9 μm/min
Mouse neutrophils; C57BL/6 mouse
  directional index of neutrophils: 0.61±0.07
  velocity of neutrophils towards the chemoattractant: 13±7.4 μm/min
Mouse neutrophils; C57BL/6 mouse versus Sv129S6, rat, human
  velocity of C57BL/6 neutrophils, fold lower than Sv129S6, rat or human: ~2.5 fold
Mouse neutrophils; Sv129S6 mouse
  directional index of neutrophils: 0.82±0.06
  velocity of neutrophils towards the chemoattractant: 19.7±8.7 μm/min

B1: C5a: the protein fragment C5a, neutrophil attractant (protein, UniProt P01031 678-751, looked up)
C5a anaphylatoxin: TLQKKIEEIAAKYKHSVVKKCCYDGACVNNDETCEQRAARISLGPRCIKAFTECCVVASQLRANISHKDMQLGR
modifications: C5a anaphylatoxin
notes: the protein fragment C5a, neutrophil attractant
Human neutrophils
  percentage of neutrophils activated: 63.3±7.6%
  percentage of neutrophils that migrated in response to the chemoattractant in the FCC: 26.8±5.9%
Mouse neutrophils; Sv129S6 mouse
  percentage of neutrophils activated: 18.3±3%
Mouse neutrophils
  directionality of Sv129S6 mouse neutrophils compared with humans: lower than in humans
Mouse neutrophils; mouse
  migration pattern of activated mouse neutrophils: random migration
Mouse neutrophils; mouse (Sv129S6)
  percentage of neutrophils that migrated in response to the chemoattractant in the FCC: 1±0.8%
